Data taken from publication PMC13083723 (Patterns, 2026).

System: Vero-E6 cells
Test: cells
Type: cell-based
Details: Chlorocebus sabaeus, Vero C1008, 24 h, read-out: PL_Result

SMILES	activation at 10 µM [%]
O=C1Nc2cc(Cl)c(Cl)cc2N2CCNCC12 (stereo not shown) [SPE_A62021152]	-10.8
CCc1ccc(CCOc2ccc(CC3SC(=O)NC3=O)cc2)nc1 (stereo not shown) [SPE_A48430263]	-1.25
COc1ccc(OC)c(C(O)CNC(=O)CN)c1 (stereo not shown) [SPE_A79981887]	8.02
CC(C)C(=O)OC[C@H]1O[C@@H](n2ccc(N)nc2=O)[C@](C)(F)[C@@H]1OC(=O)C(C)C [SPE_K69726595]	-9.49
CC(=O)Nc1cccc(-n2c(=O)n(C3CC3)c(=O)c3c(Nc4ccc(I)cc4F)n(C)c(=O)c(C)c32)c1 [SPE_K12343256]	-1.89
CS(=O)(=O)c1ccc(C(O)[C@H](CF)NC(=O)C(Cl)Cl)cc1 (stereo partly shown) [SPE_A30886737]	3.66
CCCCNc1cc(C(=O)O)cc(S(N)(=O)=O)c1Oc1ccccc1 [SPE_K38197229]	-2.26
Clc1ccc(C23CNCC2C3)cc1Cl (stereo not shown) [SPE_A68942014]	-4.9
COc1c(O)cc2c(c1O)[C@@H]1O[C@H](CO)[C@@H](O)[C@H](O)[C@H]1OC2=O [SPE_K04176066]	1.1
CC(C)(C)NCC(O)c1cc(O)cc(O)c1 (stereo not shown) [SPE_M79902621]	-4.19
CN1CC[C@@H](c2c(O)cc(O)c3c(=O)cc(-c4ccccc4Cl)oc23)[C@@H]1CO [SPE_K51791723]	1.15
Cc1c(N)cccc1Cn1ccc(OCCc2cccs2)cc1=O [SPE_K48888725]	1.09
CCCCC1C(=O)N(c2ccccc2)N(c2ccc(O)cc2)C1=O (stereo not shown) [SPE_A33749298]	2.66
CCCCc1ccc2[nH]c(NC(=O)OC)nc2c1 [SPE_K02407574]	-11.6
CC(=O)OCC(=O)[C@H]1CC[C@H]2[C@@H]3CC[C@H]4C[C@H](O)CC[C@]4(C)[C@H]3C(=O)C[C@]12C [SPE_K51751936]	-4.71
CCN(CC)C(=O)N1CCN(C)CC1 [SPE_K45542189]	3.18
O=C(O)Cc1ccc(CCNS(=O)(=O)c2ccc(Cl)cc2)cc1 [SPE_K26813177]	-0.423
O=C(O)c1ccccc1-c1ccc(C(F)(F)F)cc1 [SPE_K99506538]	0.609
COc1cc2c(cc1C(F)(F)F)N(C(=O)Nc1cc(F)cc(-c3cccnc3)c1)CC2 [SPE_K15424032]	13.1
CC(O)(C(=O)Nc1ccc(S(=O)(=O)c2ccccc2)cc1)C(F)(F)F (stereo not shown) [SPE_A62209527]	-3.22
CC(C)[C@H](CO)Nc1nc(Nc2ccc(C(=O)O)c(Cl)c2)c2ncn(C(C)C)c2n1 [SPE_K41564320]	1.13
COC(=O)c1ccccc1O [SPE_K10103010]	2.4

SMILES	activation at 10 µM [%]
O=C(Nc1ccc(S(=O)(=O)Nc2ccccc2Cl)c(Cl)c1)c1ccccn1 [SPE_K72687424]	-10.9
CC(=O)Oc1cc2c(s1)CCN(C(C(=O)C1CC1)c1ccccc1F)C2 (stereo not shown) [SPE_A83029242]	-4.76
CCC(Oc1ccc(Cl)cc1)C(=O)OC1CC2CCC(C1)N2C (stereo not shown) [SPE_A92933783]	-0.394
CNC(=O)[C@H]1O[C@@H](n2cnc3c(NCc4cccc(I)c4)nc(Cl)nc32)[C@H](O)[C@@H]1O [SPE_K52396582]	-2.9
CC(=O)O[C@H]1C[C@@]2(C)[C@@H](C[C@@H](O)C3[C@]2(C)CC[C@H]2[C@H](C)[C@H](O)CC[C@]32C)/C1=C(/CCC=C(C)C)C(=O)O (stereo partly shown) [SPE_A06935312]	-11.6
O=[N+]([O-])c1cncn1CCN1CCOCC1 [SPE_K79145628]	-10.4
CC(=O)N(OCc1ccccc1)[C@@H]1c2cc(C#N)ccc2OC(C)(C)[C@H]1O [SPE_K42679050]	0.738
O=C(N[C@H]1CN2CCC1CC2)c1ccc(Cl)cc1 [SPE_K28863208]	-0.0405
O=c1oc(-c2ccc(C(F)(F)F)cc2)nn1Cc1cc(Cl)ccc1O [SPE_K95609758]	5.3
CCC[N+]12C3C[C@H](C4C(O)[C@]5(C[C@@H]41)c1ccccc1N(C)[C@@H]35)[C@H](CC)[C@H]2O (stereo partly shown) [SPE_A53539450]	-3.5
Cc1ccc(S(=O)(=O)/C=C/C#N)cc1 [SPE_K15025317]	-2.64
C=CC(=O)N1CCC(Oc2cc3c(Nc4ccc(Cl)c(Cl)c4F)ncnc3cc2OC)CC1 [SPE_K50010139]	-3.41
COc1nccnc1NS(=O)(=O)c1ccc(N)cc1 [SPE_K17205817]	-0.746
CCC(=O)c1ccc(OCC(O)CN2CCN(c3ccccc3)CC2)cc1 (stereo not shown) [SPE_A28958257]	-1.6
Cc1cc(-c2nncc3c(C(C)(C)C)c(OCc4ncnn4C)nn23)no1 [SPE_K44022883]	-4.38
Cc1cccc(C)c1NC(=O)C(C)N (stereo not shown) [SPE_A92670106]	-8.17
CC(C)c1c(NC(=O)Nc2ccc(Cl)cc2)c(=O)n(-c2ccccc2)n1C [SPE_K16497916]	-9.16
C[N+]12CCC(CC1)C(OC(=O)C(O)(c1ccccc1)c1ccccc1)C2 (stereo not shown) [SPE_A46066006]	2.01
NC(C(=O)O)c1cc(O)cc(O)c1 (stereo not shown) [SPE_A20589515]	2.18
NC(=O)c1cccc2cn(-c3ccc([C@@H]4CCCNC4)cc3)nc12 [SPE_K54955827]	-6.71
C[N+]1(C)CCc2cc3c(cc2[C@H]1[C@@H]1OC(=O)c2c1ccc1c2OCO1)OCO3 [SPE_A57798559]	-11.7
O=C(Nc1cc(Cl)cc(Cl)c1O)c1c(O)c(Cl)cc(Cl)c1Cl [SPE_K07283971]	-4.07

SMILES	activation at 10 µM [%]
O=C(Nc1ccc(N2CCC(C(=O)N3CCOCC3)CC2)cc1)c1cnc(Oc2ccccc2)nc1 [SPE_K57708067]	-4.61
COc1nc(C)nc(Cl)c1NC1=NCCN1 [SPE_K77771411]	-3.03
CC(=O)NC[C@H]1CN(c2ccc(N3CCN(C(=O)CO)CC3)c(F)c2)C(=O)O1 [SPE_K47554101]	-3.34
CCc1ccc(C(=O)C(C)CN2CCCCC2)cc1 (stereo not shown) [SPE_A04252265]	-4.05
Oc1cccc(Nc2ccc(Nc3cccc(O)c3)nn2)c1 [SPE_K38687824]	-9.16
O=C(O)c1ccc2c(c1)nc(Nc1cccc(Cl)c1)c1ccncc12 [SPE_K81458380]	1.48
Cc1coc2c1C(=O)C(=O)c1c-2ccc2c(C)cccc12 [SPE_K34073885]	1.44
CCN(CC)C(=S)SSC(=S)N(CC)CC [SPE_K32744045]	5.11
COc1ccc2c(c1)nc([S+]([O-])Cc1ncc(C)c(OC)c1C)[n]2[Mg][n]1c([S+]([O-])Cc2ncc(C)c(OC)c2C)nc2cc(OC)ccc21 (stereo not shown) [SPE_A56892734]	-9.5
C1CCC2(CC1)CCNCC2 [SPE_K49545903]	-14.5
Cc1cccc(NC(=O)c2ccc(C(F)(F)F)cc2C(=O)O)n1 [SPE_K47816470]	-2.17
CCCCCCCC/C=C\CCCCCCCC(=O)NCCO [SPE_K66956375]	-6.58
O=C(Cn1c(=O)sc2ccc(Cl)cc21)N1CCN(CCO)CC1 [SPE_K27293958]	2.56
Cn1c(=O)[nH]c2ncn(C)c2c1=O [SPE_K24084088]	-5.64
CC(C)[N+](C)(CCOC(=O)C1c2ccccc2Oc2ccccc21)C(C)C [SPE_K90885812]	-7.34
CCc1c(C(=O)C(N)=O)c2c(OCC(=O)O)cccc2n1Cc1ccccc1 [SPE_K09711437]	-15.1
COc1ccc(Oc2c(Cl)cnn(C3c4ccccc4-c4ccccc43)c2=O)cc1 [SPE_K27732927]	-5.19
COc1cc2c(cc1NS(=O)(=O)c1ccc(Br)cc1C)n(C)c(=O)n2C [SPE_K92658264]	-2.45
CC(C)(C)C(=O)OCOC(=O)C1N2C(=O)CC2S(=O)(=O)C1(C)C (stereo not shown) [SPE_A63431791]	-1.74
O=S(=O)(c1cccc2c(O)nccc12)N1CCCNCC1 [SPE_K77793136]	-5.16
C[C@H](N)[C@H](O)c1cccc(O)c1 [SPE_K96253961]	-12.2
Cc1c(-c2ccnn2C)cc(C(=O)NCc2ccc(S(C)(=O)=O)cn2)c(=O)n1-c1cccc(C(F)(F)F)c1 [SPE_K31476763]	-9.37

SMILES	activation at 10 µM [%]
Cc1cc(C)nc(NS(=O)(=O)c2ccc(NC(=S)NC(=O)COc3ccc(Br)cc3Cl)cc2)n1 [SPE_K22829793]	-2.21
CC(C)(C)NCC(O)COc1cccc2c1CCC(=O)N2 (stereo not shown) [SPE_A42167015]	2.81
Cn1ncc2c(N3CCOCC3)nc(-c3cccc(O)c3)nc21 [SPE_K15858023]	-6.72
O=C(O)C1CN(CCCP(=O)(O)O)CCN1 (stereo not shown) [SPE_A60832661]	-0.285
CC(C)[C@@H](N)C(=O)O [SPE_K59424860]	0.189
NCC1CC(=O)N(Cc2ccccc2)C1 (stereo not shown) [SPE_A51355958]	2
O=C1N=C2NN=CC2C(=O)N1 (stereo not shown) [SPE_K31841515]	2.22
C[C@]12C=CC(=O)C=C1CC[C@@H]1[C@@H]2CC[C@]2(C)OC(=O)CC[C@@H]12 [SPE_K69636617]	-2.05
C[C@@H](N)[C@@H](O)c1ccccc1 [SPE_K27853494]	-4.21
O=C(O)[C@@H]1C[C@@H](O)CN1 [SPE_A12454076]	-8.44
COc1cc(O)c(C(=O)c2ccccc2)cc1S(=O)(=O)O [SPE_K38602774]	-11.2
Cc1cccc(C)c1NC(=O)c1ccccc1C(=O)O [SPE_K05724540]	-3.96
Cc1nnc(C(C)C)n1C1CC2CCC(C1)N2CC[C@H](NC(=O)C1CCC(F)(F)CC1)c1ccccc1 (stereo partly shown) [SPE_A04352665]	-15.3
O=C(/C=C/C=C/c1ccc2c(c1)OCO2)N1CCCCC1 [SPE_K59522102]	2.7
CCCCCCCCCCCCOS(=O)(=O)O [SPE_K05680146]	12.1
Cn1cc(C(=O)C(=O)N[C@H]2CN3CCC2CC3)c2ccccc21 [SPE_K20714604]	10.1
COc1ncc2cc(C(=O)Nc3cc(C(=O)NCc4cccc(Cl)c4)ccc3Cl)c(=O)[nH]c2n1 [SPE_K89517477]	-0.459
O=C(COc1ccc(C(=O)c2ccccc2)cc1)NC1CCN(Cc2ccccc2)CC1 [SPE_K68810443]	-3.96
Cc1ccc(-c2nc3ccc(C)cn3c2CC(=O)N(C)C)cc1 [SPE_K44876623]	-2.13
